# Experimental data published in paper PMC10394673, “Module walking using an SH3-like cell-wall-binding domain leads to a new GH184 family of muramidases” (Acta Crystallographica. Section D, Structural Biology, 2023).
# Peptide text beside a SMILES is read from it.
# How the values were obtained:
# TsCWBD [1] = biological target: T1, TsCWBD (Trichophaea saccata, UniProt A0AA82WPC9); assay: nanoDSF thermal shift; assay type: binding; details: pH 8.5; Chelex-treated and untreated protein
# T1 construct: isolated N-terminal SH3-like CWBD, residues 1-73 of the 245-residue GH24 muramidase, about 10 kDa, recombinant; no catalytic domain
# T1 sequence (A0AA82WPC9 1-73): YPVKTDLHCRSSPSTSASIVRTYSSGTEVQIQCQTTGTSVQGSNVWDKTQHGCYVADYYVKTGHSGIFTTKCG
# TsCWBD [2] = biological target: T1, TsCWBD; assay: X-ray crystal structure, […] A; assay type: binding; details: co-crystallized with 10 mM triglycine, pH 8.5; canonical SH3 specificity zone (Asp6, His8, Arg10); zinc-bridged crystal contact
structure (smiles),measurement,setting,value
NCC(=O)NCC(=O)NCC(=O)O [triglycine] (H-Gly-Gly-Gly-OH),thermal shift,TsCWBD [1],"the thermal shift is present for both treated and untreated samples, implying ligand binding"
same,"X-ray crystal structure, 1.18 A",TsCWBD [2],The triglycine in our structure is bound within the canonical specificity zone
